This is an account of results in patent US20220233563A1, “Methods of Treatments Based Upon Anthracycline Responsiveness” (The Board of Trustees of the Leland Stanford Junior …, priority 2019, published 2022).

Assay [1] deals with HCC1954 breast cancer cell line. As to the kind of experiment: Cell viability after drug treatment of HCC1954 cells with inducible shRNA knockdown of KDM4B. In kind it is cell-based. To be noted: KDM4B knocked down four days, then drug for three days; normalized to DMSO vehicle-only controls; FIG. 26.
Experimental: To functionally evaluate the role of KDM4B expression in anthracycline sensitivity, three inducible shRNA knockdown constructs were used to lower the levels of KDM4B protein in the HCC1954 breast cancer cell line (FIG. 24). […] The expression KDM4B was knocked down for four days, and then the cells were treated with either doxorubicin, etoposide (a non-anthracycline TOP2 inhibitor) or paclitaxel (a taxane commonly used to treat breast cancer that functions via tubulin inhibition) for three days, after which cell viability was measured (FIG. 25). All experiments were normalized to DMSO vehicle-only controls and were performed under both induced and non-induced conditions.
Assay [2] has the same test system. The assay is described as follows: Cell viability after drug treatment of HCC1954 cells with inducible shRNA knockdown of KAT6B. Format: cell-based. The note with it: three inducible shRNA constructs against KAT6B in HCC1954; FIG. 31.
Assay [3] has the same test system. The note with it: unmodified HCC1954, ER-/HER2+, not TOP2A amplified; cited from earlier work.

On to `COc1cccc2c1C(=O)c1c(O)c3c(c(O)c1C2=O)C[C@@](O)(C(=O)CO)C[C@@H]3O[C@H]1C[C@H](N)[C@H](O)[C@H](C)O1` [doxorubicin], for which, in assay [1], the “change in drug sensitivity (cell viability) upon knockdown of KDM4B” value (“change in drug sensitivity … of KDM4B” for short) was “induced resistance”. Moreover, the “change in drug sensitivity (cell viability) upon knockdown of KAT6B” value (from here on “change in drug sensitivity … of KAT6B”) in assay [2] is recorded as “induced resistance”. The “doxorubicin sensitivity of the HCC1954 cell line” value in assay [3] was “doxorubicin-sensitive”.

In the case of `COc1cc([C@@H]2c3cc4c(cc3[C@@H](O[C@@H]3O[C@@H]5CO[C@@H](C)O[C@H]5[C@H](O)[C@H]3O)[C@H]3COC(=O)[C@H]23)OCO4)cc(OC)c1O` [etoposide], the “change in drug sensitivity … of KDM4B” value in assay [1] was “induced resistance”. Further, the “change in drug sensitivity … of KAT6B” value in assay [2] is “induced resistance”.

Take `CC(=O)O[C@H]1C(=O)[C@@]2(C)[C@H]([C@H](OC(=O)c3ccccc3)[C@]3(O)C[C@H](OC(=O)[C@H](O)[C@@H](NC(=O)c4ccccc4)c4ccccc4)C(C)=C1C3(C)C)[C@]1(OC(C)=O)CO[C@@H]1C[C@@H]2O` [paclitaxel]: in assay [1], the “change in drug sensitivity … of KDM4B” value is given as “remained sensitive”. Besides, the “change in drug sensitivity … of KAT6B” value in assay [2] is recorded as “remained sensitive”.
